Laboratory results reported in patent publication US6034086A, “Trifluoromethylquinolinecarboxylic acid derivative” (priority 1994, dated 2000).
Converted amounts (≈) assume the structure as drawn. Like-named read-outs stand apart in the source and are kept apart here.

Assays:
HIV [1] = assay: cellular disorder-suppressing activity (anti-HIV activity) in HIV-infected MT-4 cells, MTT, method of R. Pauwel et al.; type: cell-based; conditions: for EC50: Human immunodeficiency virus 1, MT4, 120 h, HIV-infected MT-4 cells, 37° C., 5 days, 5% carbon dioxide, MTT, read-out: EC50 (50% cellular disorder-suppressing activity against the HIV-infected cells)
Protocol: That is, MT-4 cells were centrifuged (1000×g, 5 minutes), and a cell-floating solution in which the resulting cellular sediments were suspended in a RPMI-1640 medium containing no serum was inoculated with HIV. The mixture was cultured at 37° C. for 1 hour and then added to a RPMI-1640 medium to which 10% bovine fetal serum was added (hereinafter referred to as the serum medium), and the mixture was washed and centrifuged (1000×g, 5 minutes). The HIV-infected cells thus obtained and HIV-non-infected cells were suspended in the serum media in an amount of 4×10^5 /ml, respectively, and each 100 μl of the suspensions were apportioned to the respective wells of a multiwell with 96 wells for tissue culture. Each 100 μl of the compounds which had been previously diluted with the serum medium stepwisely were apportioned to these respective wells, and then the mixtures were left to stand and cultured at 37° C. for 5 days in the presence of 5% carbon dioxide. In the same manner, the HIV-infected cells and the HIV-non-infected cells to which the compound was not added were cultured. […] It was confirmed that no mycoplasma was contained in the cell solution and the virus-inoculated solution.
The cellular disorder-suppressing activity against the HIV-non-infected cells to which the compound was not added was defined as 100%, and the cellular disorder-suppressing activity against the HIV-infected cells to which the compound was not added was defined as 0%.

HIV [2] = conditions: AIDS 4, 1283 (1990) for DR-3355; WO 90/13542 for the others; cited from earlier work
[3] = method of R. Pauwel et al., statement in background section

**Q.** With `O=C(O)c1cn(C2CC2)c2cc(N3CCNCC3)c(F)cc2c1=O` [Ciprofloxacin] as the compound, how does the “cellular disorder-suppressing activity to HIV-infected cells (anti-HIV activity), in words” value (shortened to “cellular disorder-suppressing activity”) (HIV [1]) read?
**A.** no anti-HIV activity was also recognized

**Q.** What about the “anti-HIV activity reported in literature, in words” value (“anti-HIV activity reported” below) (HIV [2]) of the same compound?
**A.** anti-HIV activities

**Q.** With `C[C@H]1COc2c(N3CCN(C)CC3)c(F)cc3c(=O)c(C(=O)O)cn1c23` [DR-3355] as the compound, how does the “cellular disorder-suppressing activity” value (HIV [1]; [3]) read?
**A.** no anti-HIV activity was recognized

**Q.** And the “anti-HIV activity reported” value (HIV [2])?
**A.** anti-HIV activity

**Q.** What does the source list for `CN1CCN(c2cc3c(cc2F)c(=O)c(C(=O)O)cn3-c2ccc(F)cc2)CC1` [Difloxacin]?
**A.** cellular disorder-suppressing activity to HIV-infected cells (anti-HIV activity), in words (HIV [1]; [3]): no anti-HIV activity was also recognized; anti-HIV activity reported in literature, in words (HIV [2]): anti-HIV activities

**Q.** Which results are given for `CCn1cc(C(=O)O)c(=O)c2cc(F)c(N3CCNCC3)nc21` [Enoxacin]?
**A.** cellular disorder-suppressing activity to HIV-infected cells (anti-HIV activity), in words (HIV [1]; [3]): no anti-HIV activity was also recognized; anti-HIV activity reported in literature, in words (HIV [2]): anti-HIV activities

**Q.** With `O=C(O)c1cn(C2CC2)c2c(C(F)(F)F)c(N3CCN(c4ccccn4)CC3)c(F)cc2c1=O` [Example 2, 1-cyclopropyl-6-fluoro-8-trifluoromethyl-1,4-dihydro-4-oxo-7-[4-(2-pyridyl)piperazin-1-yl]quinoline-3-carboxylic acid] as the compound, how does the EC50 (HIV [1]) read?
**A.** 0.02 µg/mL (≈ 0.042 µM)

**Q.** With `Cn1cc(C(=O)O)c(=O)c2cc(F)c(N3CCN(c4ncccn4)CC3)c(C(F)(F)F)c21` [Example 8, 6-fluoro-8-trifluoromethyl-1,4-dihydro-4-oxo-1-methyl-7-[4-(2-pyrimidinyl)piperazin-1-yl]quinoline-3-carboxylic acid] as the compound, how does the EC50 (HIV [1]) read?
**A.** 0.02 µg/mL (≈ 0.0443 µM)

**Q.** With `Cn1cc(C(=O)O)c(=O)c2cc(F)c(N3CCN(c4ccccn4)CC3)c(C(F)(F)F)c21` [Example 9, 6-fluoro-8-trifluoromethyl-1,4-dihydro-4-oxo-1-methyl-7-[4-(2-pyridyl)piperazin-1-yl]quinoline-3-carboxylic acid] as the compound, how does the EC50 (HIV [1]) read?
**A.** 0.005 µg/mL (≈ 0.0111 µM)

**Q.** With `CCn1cc(C(=O)O)c(=O)c2cc(F)c(N3CCN(c4ccccn4)CC3)c(C(F)(F)F)c21` [Example 11, 1-ethyl-6-fluoro-8-trifluoromethyl-1,4-dihydro-4-oxo-7-[4-(2-pyridyl)piperazin-1-yl]quinoline-3-carboxylic acid] as the compound, how does the EC50 (HIV [1]) read?
**A.** 0.01 µg/mL (≈ 0.0215 µM)

**Q.** With `Cn1cc(C(=O)O)c(=O)c2cc(F)c(N3CCN(c4ccc(F)cc4)CC3)c(C(F)(F)F)c21` [Example 22, 6-fluoro-8-trifluoromethyl-1,4-dihydro-4-oxo-1-methyl-7-[4-(4-fluorophenyl)piperazin-1-yl]quinoline-3-carboxylic acid] as the compound, how does the EC50 (HIV [1]) read?
**A.** 0.0096 µg/mL (≈ 0.0205 µM)

**Q.** For `Cn1cc(C(=O)O)c(=O)c2cc(F)c(N3CCN(c4nccs4)CC3)c(C(F)(F)F)c21` [Example 23, 6-fluoro-8-trifluoromethyl-1,4-dihydro-4-oxo-1-methyl-7-[4-(2-thiazolyl)piperazin-1-yl]quinoline-3-carboxylic acid], which EC50 (HIV [1]) is on record?
**A.** 0.011 µg/mL (≈ 0.0241 µM)

**Q.** For `CCn1cc(C(=O)O)c(=O)c2cc(F)c(N3CCNC(C)C3)c(F)c21` (centres unmarked) [Lomefloxacin], which “cellular disorder-suppressing activity” value (HIV [1]; [3]) is on record?
**A.** no anti-HIV activity was also recognized

**Q.** What about the “anti-HIV activity reported” value (HIV [2]) of the same compound?
**A.** anti-HIV activities

**Q.** What does the source list for `CCn1cc(C(=O)O)c(=O)c2cc(F)c(N3CCNCC3)cc21` [Norfloxacin]?
**A.** cellular disorder-suppressing activity to HIV-infected cells (anti-HIV activity), in words (HIV [1]; [3]): no anti-HIV activity was also recognized; anti-HIV activity reported in literature, in words (HIV [2]): anti-HIV activities

**Q.** Which results are given for `NC1CCN(c2nc3c(cc2F)c(=O)c(C(=O)O)cn3-c2ccc(F)cc2F)C1` (centres unmarked) [Tosufloxacin]?
**A.** cellular disorder-suppressing activity to HIV-infected cells (anti-HIV activity), in words (HIV [1]; [3]): no anti-HIV activity was also recognized; anti-HIV activity reported in literature, in words (HIV [2]): anti-HIV activities
